Data as given in patent publication EP2266984A1, “Pyrido[2,3-d]pyrimidines as Wnt antagonists for treatment of cancer and arthritis” (Deutsches Krebsforschungszentrum Stiftung des öffentlichen …, priority 2009, dated 2010).

How the values were obtained:
HepG2 = assay: CellTiterGlo cytotoxicity assay in HepG2; assay type: cell-based; settings: 24h after compound addition
Description: For examination of cytotoxicity in these cancer cell lines the commercial available CellTiterGlo® Reagent (Promega, USA) was used according to the manufactor.
Compounds were applied to Hek293T (denoted (1)) or HepG2 (denoted (2)), cultured in Dulbecco's Modified Eagles Medium, supplemented with 10% fetal calf serum and 1% penicillin/streptomycin. Cells were grown in T75 flasks at 37 °C, 5% CO2 and trypsinized when 60-80% confluent by adding 2 ml of 0.25% Trypsin-EDTA solution. Cells were then re-suspended into culture medium yielding approx. 4000 cells (1) or 4500 cells (2), suspended in 30 microl medium. 48h after cell seeding, compounds were added to yield the desired final concentrations. 24h after compound addition cytotoxicity was evaluated. For this purpose the media was removed and CellTiterGlo® was added according to the manufactors manual. In this assay the luciferase emission readout is directly correlated with the cellular amount of ATP, low luciferase emission thus is reflecting cytotoxicity of a compound. For the evaluation of the IC50 the compound was applied in increasing concentrations yielding final concentrations per well of 5nM - 100 microM.

Wnt signalling pathway = assay: Wnt-sensitive reporter gene assay (6xTCF-luciferase, pTOP-FLASH) in Hek293T cells; assay type: cell-based; settings: for Normalized Wnt pathway inhibitory activity: 24 h; for IC50: Homo sapiens, HEK-293T, 6xTCF-luciferase, 5nM - 100 microM, 24 h incubation, read-out: IC50 of the Wnt pathway inhibitory activity
Description: To screen for small-molecule modulators of the Wnt signalling pathway, a reporter gene based assay describing the modulation of the TCF4 transcription factor was used. More specifically 4000 Hek293T cells were seeded into 384 high density plates. 24h after seeding a Wnt-sensitive reporter (6xTCF-luciferase (Firefly) (pTOP-FLASH; "Armadillo coactivates transcription driven by the product of the Drosophila segment polarity gene dTCF", Cell, 1997, 88(6), pages 789-99)) and constitutively expressed control reporter (Renilla luciferase pCMV-RL) were transfected into Hek293T. Wnt signaling was stimulated by cotransfecting mouse Wnt1, mouse Frizzled 8 and human LRP6 according to "Casein kinase 1 gamma couples Wnt receptor activation to cytoplasmic signal transduction", Nature, 2005, 438(7069), pages 867-872. 24 h after pathway stimulation compounds were added at a concentration of 10 microM and allowed to incubate for 24 h. For the evaluation of the IC50 the compound was applied in increasing concentrations yielding final concentrations per well of 5nM - 100 microM.

HFF-1 = assay: Cell line specific cytotoxicity, HFF-1 fibroblasts; assay type: cell-based, human; settings: 10 microM; HFF-1 cell line
Description: For examination of cell line-specific cytotoxicity, compounds were applied to human colorectal cancer cells (HCT116, denoted (1); SW480, denoted (2); Dld-1, denoted (3)) and human fibroblasts (HFF-1, denoted (4); HS-68, denoted (5)), cultured in Mc Coy's (1) and Dulbecco's Modified Eagles Medium ((2)-(5)), supplemented with 10% ((1)-(3)) and 20% ((4), (5)) fetal calf serum and 1% penicillin/streptomycin. Cells were grown in T75 flasks at 37 °C, 5% CO2 and trypsinized when 60-80% confluent by adding 2 ml of 0.25% Trypsin-EDTA solution. Cells were then re-suspended into culture medium yielding approx. 750 cells, suspended in 45 microl medium, were plated into each well of a black 384-well plate for fluorescence imaging experiments. […] Compound incubation was terminated by (a) fixation and (b) permeabilisation of cells, followed by (c) fluorescence labeling of cell nuclei for cytometric quantification or by immunocytochemistry for microscopic evaluation of cell morphology. […]
Cell line-specific cytotoxicity was quantified by counting the number of Hoechst labeled nuclei per well of a 384-well plate using a plate cytometer. Data obtained with the cytometer was analysed using standard data analysis software.
Identified hits were further evaluated by visual inspection of fluorescence micrographs obtained from imaging using a conventional fluorescence microscope.

IC50 (Wnt signalling pathway) | SMILES | Normalized toxicity values (HepG2) (HepG2; 0.005 microM) | Normalized toxicity values (HepG2) (HepG2; 0.015 microM) | Normalized toxicity values (HepG2) (HepG2; 0.046 microM) | Normalized toxicity values (HepG2) (HepG2; 0.137 microM) | Normalized toxicity values (HepG2) (HepG2; 0.412 microM) | Normalized toxicity values (HepG2) (HepG2; 1.235 microM) | Normalized toxicity values (HepG2) (HepG2; 3.704 microM) | Normalized toxicity values (HepG2) (HepG2; 11.111 microM) | Normalized toxicity values (HepG2) (HepG2; 33.333 microM) | Normalized toxicity values (HepG2) (HepG2; 100.000 microM) | Normalized Wnt pathway inhibitory activity (Wnt signalling pathway; 0.005 microM) | Normalized Wnt pathway inhibitory activity (Wnt signalling pathway; 0.015 microM) | Normalized Wnt pathway inhibitory activity (Wnt signalling pathway; 0.137 microM) | Normalized Wnt pathway inhibitory activity (Wnt signalling pathway; 0.412 microM) | Normalized Wnt pathway inhibitory activity (Wnt signalling pathway; 1.235 microM) | Normalized Wnt pathway inhibitory activity (Wnt signalling pathway; 3.704 microM) | Normalized Wnt pathway inhibitory activity (Wnt signalling pathway; 11.111 microM) | Normalized Wnt pathway inhibitory activity (Wnt signalling pathway; 33.333 microM) | Normalized Wnt pathway inhibitory activity (Wnt signalling pathway; 100.000 microM) | also measured
1.9 ± 0.9 µM | CCOC(=O)c1c(C)nc2c(c(N3CCN(C(c4ccc(F)cc4)c4ccc(F)cc4)CC3)nc(=O)n2-c2ccccc2)c1-c1ccccc1 [Example 157] | 1.1125 | 1.0775 | 1.1275 | 1.0175 | 0.9413 | 0.9785 | 0.9853 | 1.0043 | 1.1100 | 1.1575 | 0.9895 | 1.0328 | 0.6610 | 1.2550 | 0.6557 | 0.3888 | 0.3733 | 0.1933 | 0.1651 | –
1.6 ± 0.9 µM | CCOC(=O)c1c(C)nc2c(c(N3CCN(C/C=C/c4ccccc4)CC3)nc(=O)n2-c2ccccc2)c1-c1ccccc1 [Example 153, 7-Methyl-2-oxo-1,5-diphenyl-4-[4-((E)-3-phenyl-allyl)-piperazin-1-yl]-1,2-dihydro-pyrido[2,3-d]pyrimidine-6-carboxylic acid ethyl ester] | 1.0700 | 1.0658 | 0.9725 | 0.9743 | 0.9480 | 0.9543 | 1.1225 | 1.2725 | 1.2650 | 0.0718 | 0.8000 | – | 0.9813 | 0.8173 | 0.5333 | 0.2410 | 0.1023 | 0.0518 | 0.0132 | Effect on normal cells (HFF-1) (HFF-1): not affected; Normalized Wnt pathway inhibitory activity (Wnt signalling pathway; 0.046 microM): 1.0868
1.6 ± 0.6 µM | CCOC(=O)c1c(C)nc2c(c(N3CCN(Cc4ccccc4F)CC3)nc(=O)n2-c2ccccc2)c1-c1ccccc1 [Example 150] | 1.1325 | 1.1350 | 1.0275 | 1.0350 | 0.9625 | 0.9870 | 1.0658 | 1.0800 | 1.1425 | 1.2175 | 0.8990 | 0.8480 | 1.0310 | 0.8660 | 0.6448 | 0.3170 | 0.2795 | 0.1573 | 0.1708 | Normalized Wnt pathway inhibitory activity (Wnt signalling pathway; 0.046 microM): 0.8763
